Reference: patent publication US20080085893A1, “MATRIX METALLOPROTEASE INHIBITORS” (priority 2006, published 2008)
Where “and” joins values, the source holds several entries; their conditions need not be identical. Equal entries are not always repeated.

Key:
Format in all cases: biochemical
[1] = biological target: T1, human MMP-1 (amino acids 100-262) (Homo sapiens, UniProt P03956); assay: MMP dose response assay for determining IC50, MMP-1; conditions: recombinant catalytic domain, fluorescent-quench substrate 100 nM
T1 construct: human MMP-1 (amino acids 100-262); made in house
T1 sequence (P03956 100-262): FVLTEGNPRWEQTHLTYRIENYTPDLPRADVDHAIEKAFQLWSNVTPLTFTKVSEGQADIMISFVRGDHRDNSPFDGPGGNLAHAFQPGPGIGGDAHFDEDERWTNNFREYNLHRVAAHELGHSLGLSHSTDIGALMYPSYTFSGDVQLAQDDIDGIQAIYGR
Description: (§1) MMP Dose Response Assay for Determining IC50
(§2) The following method was used for determining IC50 values of different inhibitor compounds against multiple MMP enzymes. Frozen stocks of recombinantly produced MMPs were prepared in assay buffer (50 mM HEPES pH 7.4, 10 mM CaCl2, 0.05% Brij-35). […] Enzyme concentrations in the assay were determined empirically and set such that proteolytic activity was maintained in a linear range over the time-course of the experiment. […] Each concentration for each test compound was tested in triplicate. MMP enzymes were equilibrated with compounds for 1 hour at room temperature, then a fluorescent-quench substrate (Acetyl-Cys(Eu)-Pro-Leu-Gly-Leu-Lys-(QSY7)-Ala-Arg-amide) was added to a final concentration of 100 nM. […] Data was analyzed by first calculating average background value from wells that contained only substrate, and this value was subtracted from the entire plate. The 100%, or maximum value, was determined by averaging control wells that contained enzyme, substrate and DMSO. For each well, the percent of control was calculated by dividing the well value by the average DMSO value obtained above.

[2] = biological target: T2, human MMP-2 (amino acids 1-660) (Homo sapiens, UniProt P08253); assay: MMP dose response assay for determining IC50, MMP-2; conditions: recombinant enzyme, fluorescent-quench substrate 100 nM; read-out: MMP-2
T2 construct: human MMP-2 (amino acids 1-660); made in house
T2 sequence (P08253 110-660): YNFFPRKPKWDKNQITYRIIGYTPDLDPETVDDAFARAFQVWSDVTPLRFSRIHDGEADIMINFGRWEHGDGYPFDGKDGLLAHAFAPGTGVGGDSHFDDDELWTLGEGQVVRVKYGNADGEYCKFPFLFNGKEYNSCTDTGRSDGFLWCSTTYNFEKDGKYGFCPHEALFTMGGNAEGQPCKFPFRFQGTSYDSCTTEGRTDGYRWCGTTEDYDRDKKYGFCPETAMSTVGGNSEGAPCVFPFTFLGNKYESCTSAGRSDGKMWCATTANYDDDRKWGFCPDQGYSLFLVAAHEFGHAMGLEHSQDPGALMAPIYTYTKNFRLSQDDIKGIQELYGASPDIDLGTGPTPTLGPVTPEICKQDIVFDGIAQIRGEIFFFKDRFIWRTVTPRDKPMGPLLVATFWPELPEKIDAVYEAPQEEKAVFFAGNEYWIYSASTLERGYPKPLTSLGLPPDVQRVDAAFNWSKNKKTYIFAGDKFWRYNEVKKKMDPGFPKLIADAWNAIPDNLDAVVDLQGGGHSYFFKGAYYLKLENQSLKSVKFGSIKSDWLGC
Description: as §1, §2

[3] = biological target: T3, human MMP-9 (amino acids 107-446) (Homo sapiens, UniProt P14780); assay: MMP dose response assay for determining IC50, MMP-9; conditions: recombinant enzyme, fluorescent-quench substrate 100 nM; read-out: MMP-9
T3 construct: human MMP-9 (amino acids 107-446); made in house
T3 sequence (P14780 107-446): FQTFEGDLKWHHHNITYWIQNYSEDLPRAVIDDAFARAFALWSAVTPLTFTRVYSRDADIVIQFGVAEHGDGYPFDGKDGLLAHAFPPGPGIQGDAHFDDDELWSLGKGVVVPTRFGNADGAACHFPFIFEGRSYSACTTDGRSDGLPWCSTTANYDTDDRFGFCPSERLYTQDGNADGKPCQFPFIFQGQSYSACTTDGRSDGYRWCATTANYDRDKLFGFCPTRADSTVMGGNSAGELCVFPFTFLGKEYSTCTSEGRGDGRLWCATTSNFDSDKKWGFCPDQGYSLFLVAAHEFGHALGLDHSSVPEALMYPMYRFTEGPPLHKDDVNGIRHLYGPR
Description: as §1, §2

SMILES | IC50 [1] | IC50 [2] | IC50 [3]
CCS(=O)(=O)N(C[C@H](O)C(=O)NO)c1ccc(Oc2ccc(C)cc2)cc1 [Example 20, N-Hydroxy (2S)-2-hydroxy-3-{N-[4-(4-methylphenoxy)phenyl],N-ethylsulfonylamino}propionamide] | > 10000 nM | 115 nM and 169 nM | 21.4 nM and 33.6 nM
Cc1ccc(Oc2ccc(N(C[C@@H](OCc3ccccc3)C(=O)NO)S(C)(=O)=O)cc2)cc1 [Example 22, N-Hydroxy (2R)-2-benzyloxy-3-{N-[4-(4-methylphenoxy)phenyl],N-methanesulfonylamino}propionamide] | > 10000 nM | 210 nM and 342 nM | 10.8 nM and 41.6 nM
Cc1ccc(Oc2ccc(N(C[C@H](OCc3ccccc3)C(=O)NO)S(C)(=O)=O)cc2)cc1 [Example 23, N-Hydroxy (2S)-2-benzyloxy-3-{N-[4-(4-methylphenoxy)phenyl],N-methanesulfonylamino}propionamide] | > 10000 nM | 56.2 nM and 90.4 nM | 2.6 nM and 9.22 nM
Cc1ccc(Oc2ccc(N(C[C@@H](NC(C)C)C(=O)NO)S(C)(=O)=O)cc2)cc1 [Example 24, N-Hydroxy (2R)-3-{N-[4-(4-methylphenoxy)phenyl],N-methanesulfonylamino}-2-(2-propyl)aminopropionamide] | > 10000 nM | 187 nM and 168 nM | 37.8 nM and 24.9 nM
Cc1ccc(Oc2ccc(N(C[C@H](NCc3ccccc3)C(=O)NO)S(C)(=O)=O)cc2)cc1 [Example 25, N-Hydroxy (2S)-2-benzylamino-3-{N-[4-(4-methylphenoxy)phenyl],N-methanesulfonylamino}propionamide] | > 10000 nM | 202 nM | 7.16 nM
Cc1ccc(Oc2ccc(N(C[C@@H](NCc3ccccc3)C(=O)NO)S(C)(=O)=O)cc2)cc1 [Example 26, N-Hydroxy (2R)-2-benzylamino-3-{N-[4-(4-methylphenoxy)phenyl],N-methanesulfonylamino}propionamide] | > 10000 nM | 54.8 nM | 93.3 nM
Cc1ccc(Oc2ccc(N(C[C@H](C(=O)NO)N3CCOCC3)S(C)(=O)=O)cc2)cc1 [Example 28, N-Hydroxy (2R)-3-{N-[4-(4-methylphenoxy)phenyl],N-methanesulfonylamino}-2-(morpholin-4-yl)propionamide] | > 10000 nM | 1320 nM | 295 nM
Cc1ccc(Oc2ccc(N(C[C@H](N)C(=O)NO)S(C)(=O)=O)cc2)cc1 [Example 29, N-Hydroxy (2S)-2-amino-3-{N-[4-(4-methylphenoxy)phenyl],N-methanesulfonylamino}propionamide] | > 10000 nM | 670 nM | 120 nM
Cc1ccc(Oc2ccc(N(C[C@H](O)C(=O)NO)S(=O)(=O)Cc3ccncc3)cc2)cc1 [Example 31, N-Hydroxy (2S)-2-hydroxy-3-{N-[4-(4-methylphenoxy)phenyl],N-(pryidin-4-yl)methylsulfonylamino}propionamide] | > 10000 nM | 344 nM | 54.2 nM
Cc1ccc(Oc2ccc(N(C[C@H](O)C(=O)NO)S(=O)(=O)Cc3cccnc3)cc2)cc1 [Example 32, N-Hydroxy (2S)-2-hydroxy-3-{N-[4-(4-methylphenoxy)phenyl],N-(pryidin-3-yl)methylsulfonylamino}propionamide] | > 10000 nM | 401 nM | 68.7 nM
Cc1ccc(Oc2ccc(N(C[C@H](NCc3ccncc3)C(=O)NO)S(C)(=O)=O)cc2)cc1 [Example 33, N-Hydroxy (2S)-3-{N-[4-(4-methylphenoxy)phenyl],N-methanesulfonylamino}-2-(pyridine-4-yl)methylaminopropionamide] | > 10000 nM | 9.53 nM | 1.77 nM
Cc1ccc(Oc2ccc(N(C[C@H](NCc3ccccn3)C(=O)NO)S(C)(=O)=O)cc2)cc1 [Example 34, N-Hydroxy (2S)-3-{N-[4-(4-methylphenoxy)phenyl],N-methanesulfonylamino}-2-(pyridin2-yl)methylaminopropionamide] | > 10000 nM | 83.4 nM | 22.9 nM
Cc1ccc(Oc2ccc(N(C[C@H](NCc3cccnc3)C(=O)NO)S(C)(=O)=O)cc2)cc1 [Example 35, N-Hydroxy (2S)-3-{N-[4-(4-methylphenoxy)phenyl],N-methanesulfonylamino}-2-(pyridine-3-yl)methylaminopropionamide] | > 10000 nM | 16.8 nM | 2.84 nM
Cc1ccc(Oc2ccc(N(C[C@H](NCC(C)C)C(=O)NO)S(C)(=O)=O)cc2)cc1 [Example 36, N-Hydroxy (2S)-3-{N-[4-(4-methylphenoxy)phenyl],N-methanesulfonylamino}-2-(2-methylpropyl)aminopropionamide] | 9220 nM | 11.4 nM | 1.27 nM
Cc1ccc(Oc2ccc(N(C[C@H](NC3CCCC3)C(=O)NO)S(C)(=O)=O)cc2)cc1 [Example 37, N-Hydroxy (2S)-2-cyclopentylamino-3-{N-[4-(4-methylphenoxy)phenyl],N-methanesulfonylamino}propionamide] | > 10000 nM | 9.98 nM | 1.69 nM
Cc1ccc(Oc2ccc(N(C[C@H](Nc3ccc(F)cc3)C(=O)NO)S(C)(=O)=O)cc2)cc1 [Example 38, N-Hydroxy (2S)-2-(4-fluorophenyl)amino-3-{N-[4-(4-methylphenoxy)phenyl],N-methanesulfonylamino}propionamide] | > 10000 nM | 64.4 nM | 1.32 nM
Cc1ccc(Oc2ccc(N(C[C@H](Nc3cccc(F)c3)C(=O)NO)S(C)(=O)=O)cc2)cc1 [Example 39, N-Hydroxy (2S)-2-(3-fluorophenyl)amino-3-{N-[4-(4-methylphenoxy)phenyl],N-methanesulfonylamino}propionamide] | > 10000 nM | 34.7 nM and 50.6 nM and 73.1 nM and 53 nM | 0.46 nM and 1.18 nM and 1.68 nM and 0.25 nM
Cc1ccc(Oc2ccc(N(C[C@H](Nc3ccc4[nH]ccc4c3)C(=O)NO)S(C)(=O)=O)cc2)cc1 [Example 40, N-Hydroxy (2S)-2-(indol-5-yl)amino-3-{N-[4-(4-methylphenoxy)phenyl],N-methanesulfonylamino}propionamide] | 6410 nM and 8830 nM | 30.8 nM and 14.7 nM | 1 nM and 0.64 nM
Cc1ccc(Oc2ccc(N(C[C@H](Nc3ccc(F)c(F)c3)C(=O)NO)S(C)(=O)=O)cc2)cc1 [Example 41, N-Hydroxy (2S)-2-(3,4-difluorophenyl)amino-3-{N-[4-(4-methylphenoxy)phenyl],N-methanesulfonylamino}propionamide] | > 10000 nM | 127 nM | 2.56 nM
Cc1ccc(Oc2ccc(N(C[C@H](Nc3ccc(F)c(Cl)c3)C(=O)NO)S(C)(=O)=O)cc2)cc1 [Example 42, N-Hydroxy (2S)-2-(3-chloro-4-fluorophenyl)amino-3-{N-[4-(4-methylphenoxy)phenyl],N-methanesulfonylamino}propionamide] | > 10000 nM | 431 nM | 19.9 nM
Cc1ccc(Oc2ccc(N(C[C@H](Nc3ccc(Cl)cc3)C(=O)NO)S(C)(=O)=O)cc2)cc1 [Example 43, N-Hydroxy (2S)-2-(4-chlorophenyl)amino-3-{N-[4-(4-methylphenoxy)phenyl],N-methanesulfonylamino}propionamide] | > 10000 nM | 336 nM | 22 nM
